Tested on: 317291-083-R-J1-PDC complex spheroid growth
Experiment: Anticancer human tumor 317291-083-R-J1-PDC patient-derived soft tissue sarcoma cell line growth inhibition [Asc]
Details: for IC50: curve of first compound; for viability, T/C: stronger effect = lower value
Outline: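 Stromal components (HUVEC and hMSC) are co-assembled with the cancer cells into multicellular spheroids. Drugs are then added singly or paired, at concentrations falling by half-log increments from a clinically achievable maximum, capped at 10 microM without known Cmax.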
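Further: compound exposure lasted seven days after spheroids formed for three days.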
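Wherever viability, T/C is given: 100% = DMSO vehicle control wells.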

**Q.** Which results are given for NC(=O)C(=Cn1cnc(-c2cc(C(F)(F)F)cc(C(F)(F)F)c2)n1)c1cncnc1 + CNC(C)C(=O)NC1CN(S(=O)(=O)c2cccc(S(=O)(=O)N3CCC4CCC(C(=O)NC(c5ccccc5)c5ccccc5)N4C(=O)C(NC(=O)C(C)NC)C3)c2)CCC2CCC(C(=O)NC(c3ccccc3)c3ccccc3)N2C1=O?
**A.** IC50 (second compound 0.00316 µM): 10.4 nM; IC50 (second compound 0.01 µM): 17.5 nM; IC50 (second compound 0.0316 µM): 20.6 nM; IC50 (second compound 0.1 µM): 8.13 nM; IC50 (second compound 0.316 µM): 12.4 nM; IC50 (second compound 1 µM): 2.22 nM; viability, T/C (second compound 0.00316 µM, first compound 0.000949 µM): 75.5%; viability, T/C (second compound 0.00316 µM, first compound 0.003 µM): 72.6%; viability, T/C (second compound 0.00316 µM, first compound 0.00949 µM): 47.7%; viability, T/C (second compound 0.00316 µM, first compound 0.03 µM): 32.1%; viability, T/C (second compound 0.00316 µM, first compound 0.0949 µM): 5.77%; viability, T/C (second compound 0.00316 µM, first compound 0.3 µM): 2.39%; viability, T/C (second compound 0.01 µM, first compound 0.000949 µM): 105%; viability, T/C (second compound 0.01 µM, first compound 0.003 µM): 96.1%; viability, T/C (second compound 0.01 µM, first compound 0.00949 µM): 74.5%; viability, T/C (second compound 0.01 µM, first compound 0.03 µM): 29.3%; viability, T/C (second compound 0.01 µM, first compound 0.0949 µM): 4.51%; viability, T/C (second compound 0.01 µM, first compound 0.3 µM): 2.62%; viability, T/C (second compound 0.0316 µM, first compound 0.000949 µM): 101%; viability, T/C (second compound 0.0316 µM, first compound 0.003 µM): 92.5%; viability, T/C (second compound 0.0316 µM, first compound 0.00949 µM): 75.6%; viability, T/C (second compound 0.0316 µM, first compound 0.03 µM): 39.5%; viability, T/C (second compound 0.0316 µM, first compound 0.0949 µM): 4.33%; viability, T/C (second compound 0.0316 µM, first compound 0.3 µM): 1.8%; viability, T/C (second compound 0.1 µM, first compound 0.000949 µM): 74.4%; viability, T/C (second compound 0.1 µM, first compound 0.003 µM): 73%; viability, T/C (second compound 0.1 µM, first compound 0.00949 µM): 45.3%; viability, T/C (second compound 0.1 µM, first compound 0.03 µM): 16.6%; viability, T/C (second compound 0.1 µM, first compound 0.0949 µM): 3.12%; viability, T/C (second compound 0.1 µM, first compound 0.3 µM): 1.09%; viability, T/C (second compound 0.316 µM, first compound 0.000949 µM): 63.2%; viability, T/C (second compound 0.316 µM, first compound 0.003 µM): 68.2%; viability, T/C (second compound 0.316 µM, first compound 0.00949 µM): 60.1%; viability, T/C (second compound 0.316 µM, first compound 0.03 µM): 16.1%; viability, T/C (second compound 0.316 µM, first compound 0.0949 µM): 1.31%; viability, T/C (second compound 0.316 µM, first compound 0.3 µM): 2.22%; viability, T/C (second compound 1 µM, first compound 0.000949 µM): 67.3%; viability, T/C (second compound 1 µM, first compound 0.003 µM): 38.9%; viability, T/C (second compound 1 µM, first compound 0.00949 µM): 34.8%; viability, T/C (second compound 1 µM, first compound 0.03 µM): 12.6%; viability, T/C (second compound 1 µM, first compound 0.0949 µM): 2.47%; viability, T/C (second compound 1 µM, first compound 0.3 µM): 1.44%

**Q.** NC1CCC(NC2CC2c2ccccc2)CC1 (centres undefined) + CNC(C)C(=O)NC1CN(S(=O)(=O)c2cccc(S(=O)(=O)N3CCC4CCC(C(=O)NC(c5ccccc5)c5ccccc5)N4C(=O)C(NC(=O)C(C)NC)C3)c2)CCC2CCC(C(=O)NC(c3ccccc3)c3ccccc3)N2C1=O was tested. Which IC50 (second compound 0.00316 µM) did it give?
**A.** > 100 nM

**Q.** And the IC50 (second compound 0.01 µM)?
**A.** > 100 nM

**Q.** What about the IC50 (second compound 0.0316 µM) of the same molecule?
**A.** > 100 nM

**Q.** And the IC50 (second compound 0.1 µM)?
**A.** > 100 nM

**Q.** What about the IC50 (second compound 0.316 µM) of the same molecule?
**A.** < 0.316 nM

**Q.** What about the IC50 (second compound 1 µM) of the same molecule?
**A.** < 0.316 nM

**Q.** And the viability, T/C (second compound 0.00316 µM, first compound 0.000316 µM)?
**A.** 83.2%

**Q.** What about the viability, T/C (second compound 0.00316 µM, first compound 0.001 µM) of the same molecule?
**A.** 88.8%

**Q.** And the viability, T/C (second compound 0.00316 µM, first compound 0.00316 µM)?
**A.** 84.5%

**Q.** And the viability, T/C (second compound 0.00316 µM, first compound 0.01 µM)?
**A.** 96%

**Q.** And the viability, T/C (second compound 0.00316 µM, first compound 0.0316 µM)?
**A.** 80.5%

**Q.** What about the viability, T/C (second compound 0.00316 µM, first compound 0.1 µM) of the same molecule?
**A.** 74.5%

**Q.** And the viability, T/C (second compound 0.01 µM, first compound 0.000316 µM)?
**A.** 93%

**Q.** And the viability, T/C (second compound 0.01 µM, first compound 0.001 µM)?
**A.** 80.6%

**Q.** And the viability, T/C (second compound 0.01 µM, first compound 0.00316 µM)?
**A.** 86.9%

**Q.** What about the viability, T/C (second compound 0.01 µM, first compound 0.01 µM) of the same molecule?
**A.** 93.7%

**Q.** And the viability, T/C (second compound 0.01 µM, first compound 0.0316 µM)?
**A.** 82.3%

**Q.** And the viability, T/C (second compound 0.01 µM, first compound 0.1 µM)?
**A.** 76.7%

**Q.** What about the viability, T/C (second compound 0.0316 µM, first compound 0.000316 µM) of the same molecule?
**A.** 102%

**Q.** And the viability, T/C (second compound 0.0316 µM, first compound 0.001 µM)?
**A.** 73.7%

**Q.** What about the viability, T/C (second compound 0.0316 µM, first compound 0.00316 µM) of the same molecule?
**A.** 77%

**Q.** What about the viability, T/C (second compound 0.0316 µM, first compound 0.01 µM) of the same molecule?
**A.** 70.1%

**Q.** What about the viability, T/C (second compound 0.0316 µM, first compound 0.0316 µM) of the same molecule?
**A.** 89.5%

**Q.** And the viability, T/C (second compound 0.0316 µM, first compound 0.1 µM)?
**A.** 57.4%

**Q.** What about the viability, T/C (second compound 0.1 µM, first compound 0.000316 µM) of the same molecule?
**A.** 67.5%

**Q.** What about the viability, T/C (second compound 0.1 µM, first compound 0.001 µM) of the same molecule?
**A.** 52%

**Q.** What about the viability, T/C (second compound 0.1 µM, first compound 0.00316 µM) of the same molecule?
**A.** 69.1%

**Q.** What about the viability, T/C (second compound 0.1 µM, first compound 0.01 µM) of the same molecule?
**A.** 49%

**Q.** And the viability, T/C (second compound 0.1 µM, first compound 0.0316 µM)?
**A.** 69.3%

**Q.** And the viability, T/C (second compound 0.1 µM, first compound 0.1 µM)?
**A.** 64.7%

**Q.** And the viability, T/C (second compound 0.316 µM, first compound 0.000316 µM)?
**A.** 43.2%

**Q.** And the viability, T/C (second compound 0.316 µM, first compound 0.001 µM)?
**A.** 56.5%

**Q.** And the viability, T/C (second compound 0.316 µM, first compound 0.00316 µM)?
**A.** 48%

**Q.** And the viability, T/C (second compound 0.316 µM, first compound 0.01 µM)?
**A.** 54%

**Q.** And the viability, T/C (second compound 0.316 µM, first compound 0.0316 µM)?
**A.** 61.9%

**Q.** What about the viability, T/C (second compound 0.316 µM, first compound 0.1 µM) of the same molecule?
**A.** 44%

**Q.** And the viability, T/C (second compound 1 µM, first compound 0.000316 µM)?
**A.** 37.5%

**Q.** What about the viability, T/C (second compound 1 µM, first compound 0.001 µM) of the same molecule?
**A.** 39.7%

**Q.** And the viability, T/C (second compound 1 µM, first compound 0.00316 µM)?
**A.** 34.5%

**Q.** And the viability, T/C (second compound 1 µM, first compound 0.01 µM)?
**A.** 36.8%

**Q.** And the viability, T/C (second compound 1 µM, first compound 0.0316 µM)?
**A.** 46.1%

**Q.** What about the viability, T/C (second compound 1 µM, first compound 0.1 µM) of the same molecule?
**A.** 36.8%

Source: PubChem BioAssay AID1963427 (Molecular Pharmacology Branch, DTP, NCI, 2024)
